Reference: patent publication US12016868B2, “Boronic acid derivatives and therapeutic uses thereof” (Qpex Biopharma, Inc., priority 2018, dated 2024)

Experiments:
KP1004 KPC-2 [1] = assay: Aztreonam potentiation assay (MPC@4) and aztreonam MIC; type: cell-based
Experimental: (§1) The potency and spectrum of β-lactamase inhibitors (BLIs) was determined by assessing their aztreonam potentiation activity in a dose titration potentiation assay using strains of various bacteria that are resistant to aztreonam due to expression of various β-lactamases. Aztreonam is a monobactam antibiotic and is hydrolyzed by the majority of β-lactamases that belong to class A or C (but not class B or D). The potentiation effect was observed as the ability of BLI compounds to inhibit growth in the presence of sub-inhibitory concentration of aztreonam. […] Aztreonam was present in the test medium at 4 μg/mL. Compounds were tested at concentrations up to 20 μg/mL. In this assay, potency of compounds was reported as the minimum concentration of BLI required to inhibit growth of bacteria in the presence of 4 μg/mL of aztreonam (MPC@4). Table 1 summarizes the BLI potency of aztreonam potentiation (MPC@4) for various strains overexpressing class A (ESBL and KPC), and class C β-lactamases. Aztreonam MIC for each strain is also shown.

KP1010 SHV-12 [2] = assay: as above; type: cell-based; settings: strain KP1010 SHV-12
Experimental: as §1

KP1005 CTX-M-14 [3] = assay: as above; type: cell-based
Experimental: as §1

ec308 SHV-5 [4] = assay: as above; type: cell-based; settings: strain ec308 SHV-5
Experimental: as §1

ec302 TEM-10 [5] = assay: as above; type: cell-based; settings: strain ec302 TEM-10
Experimental: as §1

ECL1002 [6] = assay: as above; type: cell-based; settings: strain ECL1002
Experimental: as §1

KP1009 CTX-M-15 [7] = assay: as above; type: cell-based; settings: strain KP1009 CTX-M-15
Experimental: as §1

EC1010 CMY-6 [8] = assay: as above; type: cell-based; settings: strain EC1010 CMY-6
Experimental: as §1

[9] = tested on: strains producing class A (KPC), class D (OXA-48), and class B (NDM-1 and VIM-1) carbapenemases; assay: Biapenem MIC of the test strains (panel); type: cell-based; settings: span over all test strains of Table 3
Experimental: (§2) β-lactamase inhibitors were also tested for their ability to potentiate the carbapenem biapenem against strains producing class A (KPC), class D (OXA-48), and class B (metallo β-lactamases, NDM-1 and VIM-1) carbapenemases. The potentiation effect was observed as the ability of BLI compounds to inhibit growth in the presence of a sub-inhibitory concentration of biapenem. […] Biapenem was present in the test medium at 1 μg/mL. Compounds were tested at concentrations up to 20 μg/mL. In this assay, potency of compounds was reported as the minimum concentration of BLI required to inhibit growth of bacteria in the presence of 1 μg/mL of biapenem (MPC@1). Table 3 summarizes the BLI potency of biapenem potentiation (MPC@1) for four strains overexpressing class A (KPC), class D (OXA-48), and class B (NDM-1 and VIM-1) carbapenemases. Biapenem MIC for each strain is also shown.

KP1004 KPC-2 [10] = assay: Biapenem potentiation assay (MPC@1) and biapenem MIC; type: cell-based; settings: strain KP1004 KPC-2
Experimental: as §2

KP1081 NDM-1 = assay: as above; type: cell-based; settings: strain KP1081 NDM-1
Experimental: as §2

KP1086 OXA-48 = assay: as above; type: cell-based; settings: strain KP1086 OXA-48
Experimental: as §2

AB1054 OXA-23 = assay: Meropenem potentiation assay (MPC@8) and meropenem MIC; type: cell-based, Acinetobacter baumannii
Experimental: (§3) β-lactamase inhibitors were also tested for their ability to potentiate the carbapenem meropenem against strains of Acinetobacter baumannii producing class D (OXA-23 and OXA-72) carbapenemases. […] Meropenem was present in the test medium at 8 μg/mL. Compounds were tested at concentrations up to 20 μg/mL. In this assay, potency of compounds was reported as the minimum concentration of BLI required to inhibit growth of bacteria in the presence of 8 μg/mL of meropenem (MPC@8).

AB1053 OXA-72 = assay: as above; type: cell-based, Acinetobacter baumannii; settings: A. baumannii strain AB1053 OXA-72
Experimental: as §3

KP1010 SHV-12 [11] = assay: Tigemonam potentiation assay (MPC@4) and tigemonam MIC; type: cell-based; settings: strain KP1010 SHV-12
Experimental: (§4) Selected β-lactamase inhibitors were also tested for their ability to potentiate the monobactam tigemonam. […] Tigemonam was present in the test medium at 4 μg/mL. Compounds were tested at concentrations up to 20 μg/mL. In this assay, potency of compounds was reported as the minimum concentration of BLI required to inhibit growth of bacteria in the presence of 4 μg/mL of tigemonam (MPC@4). Table 2 summarizes the BLI potency of tigemonam potentiation (MPC@4) for various strains overexpressing class A (ESBL) and class C β-lactamases.

KP1005 CTX-M-14 [12] = assay: as above; type: cell-based; settings: strain KP1005 CTX-M-14
Experimental: as §4

ec308 SHV-5 [13] = assay: as above; type: cell-based; settings: strain ec308 SHV-5
Experimental: as §4

ec302 TEM-10 [14] = assay: as above; type: cell-based; settings: strain ec302 TEM-10
Experimental: as §4

ECL1002 [15] = assay: as above; type: cell-based; settings: strain ECL1002
Experimental: as §4

KP1009 CTX-M-15 [16] = assay: as above; type: cell-based; settings: strain KP1009 CTX-M-15
Experimental: as §4

EC1010 CMY-6 [17] = assay: as above; type: cell-based; settings: strain EC1010 CMY-6
Experimental: as §4

KP1054 VIM-1 = assay: Biapenem potentiation assay (MPC@1) and biapenem MIC; type: cell-based; settings: minimum BLI concentration inhibiting growth with biapenem 1 μg/mL; strain KP1054 VIM-1; tested up to 20 μg/mL
Experimental: as §2

[18] = minimum BLI concentration inhibiting growth with tigemonam 4 μg/mL, tested up to 20 μg/mL
[19] = minimum BLI concentration inhibiting growth with aztreonam 4 μg/mL, tested up to 20 μg/mL
[20] = minimum BLI concentration inhibiting growth with biapenem 1 μg/mL, tested up to 20 μg/mL

## C[C@H]1[C@H](NC(=O)/C(=N\OC(C)(C)C(=O)O)c2csc(N)n2)C(=O)N1S(=O)(=O)O [Aztreonam]
KP1004 KPC-2 [1]; read-out: Aztreonam MIC
  MIC: > 128 µg/mL
KP1010 SHV-12 [2]; aztreonam alone
  MIC: 64 µg/mL
KP1005 CTX-M-14 [3]; read-out: Aztreonam MIC
  MIC: > 128 µg/mL
ec308 SHV-5 [4]; aztreonam alone
  MIC: > 128 µg/mL
ec302 TEM-10 [5]; aztreonam alone
  MIC: 128 µg/mL
ECL1002 [6]; aztreonam alone
  MIC: 64 µg/mL
KP1009 CTX-M-15 [7]; aztreonam alone
  MIC: > 128 µg/mL
EC1010 CMY-6 [8]; aztreonam alone
  MIC: > 128 µg/mL

## C[C@@H](O)[C@H]1C(=O)N2C(C(=O)[O-])=C(SC3Cn4cnc[n+]4C3)[C@H](C)[C@H]12 (stereo partly drawn) [Biapenem]
[9]
  MIC: 16 to 32 µg/mL
KP1004 KPC-2 [10]; biapenem alone
  MIC: 32 µg/mL
KP1081 NDM-1; biapenem alone
  MIC: 16 µg/mL
KP1086 OXA-48; biapenem alone
  MIC: 16 µg/mL

## COc1ccc2c(c1C(=O)O)OB(O)CC2Cn1cc(CO)nn1 (stereo not drawn) [Compound 16, 2-hydroxy-4-[[4-(hydroxymethyl)triazol-1-yl]methyl]-7-methoxy-3,4-dihydro-1,2-benzoxaborinine-8-carboxylic Acid]
AB1054 OXA-23; minimum BLI concentration inhibiting growth with meropenem 8 μg/mL, A. baumannii strain AB1054 OXA-23, tested up to 20 μg/mL
  MPM MPC8 AB1054 OXA-23: Y (Y = 5 μg/mL < MPC@1 ≤ 20 μg/mL)
AB1053 OXA-72; minimum BLI concentration inhibiting growth with meropenem 8 μg/mL, tested up to 20 μg/mL
  MPM MPC8 AB1053 OXA-72: X (X = MPC@1 ≤ 5 μg/mL)
KP1010 SHV-12 [11]; [18]
  TIG MPC4 SHV-12 KP1010: X (X = MPC@4 ≤ 5 μg/mL)
KP1005 CTX-M-14 [12]; [18]
  TIG MPC4 CTX-M-14 KP1005: Y (Y = 5 μg/mL < MPC@4 ≤ 20 μg/mL)
ec308 SHV-5 [13]; [18]
  TIG MPC4 SHV-5 ec308: X (X = MPC@4 ≤ 5 μg/mL)
ec302 TEM-10 [14]; [18]
  TIG MPC4 TEM-10 ec302: Y (Y = 5 μg/mL < MPC@4 ≤ 20 μg/mL)
ECL1002 [15]; [18]
  TIG MPC4 ECL1002: X (X = MPC@4 ≤ 5 μg/mL)
KP1009 CTX-M-15 [16]; [18]
  TIG MPC4 CTX-M-15 KP1009: X (X = MPC@4 ≤ 5 μg/mL)
EC1010 CMY-6 [17]; [18]
  TIG MPC4 CMY-6 EC1010: X (X = MPC@4 ≤ 5 μg/mL)
KP1004 KPC-2 [1]; minimum BLI concentration inhibiting growth with aztreonam 4 μg/mL, strain KP1004 KPC-2, tested up to 20 μg/mL
  AZT MPC4 KPC-2 KP1004: X (X = MPC@4 ≤ 5 μg/mL)
KP1010 SHV-12 [2]; [19]
  AZT MPC4 SHV-12 KP1010: X (X = MPC@4 ≤ 5 μg/mL)
KP1005 CTX-M-14 [3]; minimum BLI concentration inhibiting growth with aztreonam 4 μg/mL, strain KP1005 CTX-M-14, tested up to 20 μg/mL
  AZT MPC4 CTX-M-14 KP1005: X (X = MPC@4 ≤ 5 μg/mL)
ec308 SHV-5 [4]; [19]
  AZT MPC4 SHV-5 ec308: X (X = MPC@4 ≤ 5 μg/mL)
ec302 TEM-10 [5]; [19]
  AZT MPC4 TEM-10 ec302: X (X = MPC@4 ≤ 5 μg/mL)
ECL1002 [6]; [19]
  AZT MPC4 ECL1002: X (X = MPC@4 ≤ 5 μg/mL)
KP1009 CTX-M-15 [7]; [19]
  AZT MPC4 CTX-M-15 KP1009: X (X = MPC@4 ≤ 5 μg/mL)
EC1010 CMY-6 [8]; [19]
  AZT MPC4 CMY-6 EC1010: X (X = MPC@4 ≤ 5 μg/mL)
KP1004 KPC-2 [10]; [20]
  BPM MPC1 KP1004 KPC-2: X (X = MPC@1 ≤ 5 μg/mL)
KP1081 NDM-1; [20]
  BPM MPC1 KP1081 NDM-1: Y (Y = 5 μg/mL < MPC@1 ≤ 20 μg/mL)
KP1086 OXA-48; [20]
  BPM MPC1 OXA-48 KP1086: Y (Y = 5 μg/mL < MPC@1 ≤ 20 μg/mL)
KP1054 VIM-1
  BPM MPC1 KP1054 VIM-1: Y (Y = 5 μg/mL < MPC@1 ≤ 20 μg/mL)

## C[C@@H](O)[C@H]1C(=O)N2C(C(=O)O)=C(S[C@@H]3CN[C@H](C(=O)N(C)C)C3)[C@H](C)[C@H]12 [Meropenem]
AB1054 OXA-23; Acinetobacter baumannii, read-out: Meropenem MIC
  MIC: 32 µg/mL
AB1053 OXA-72; Acinetobacter baumannii, meropenem alone
  MIC: > 64 µg/mL

## CC1(C)[C@H](NC(=O)/C(=N\OCC(=O)O)c2csc(N)n2)C(=O)N1OS(=O)(=O)O [Tigemonam]
KP1010 SHV-12 [11]; tigemonam alone
  Tigemonam MIC: >64 µg/mL
KP1005 CTX-M-14 [12]; tigemonam alone
  Tigemonam MIC: >64 µg/mL
ec308 SHV-5 [13]; tigemonam alone
  Tigemonam MIC: >64 µg/mL
ec302 TEM-10 [14]; tigemonam alone
  Tigemonam MIC: >64 µg/mL
ECL1002 [15]; tigemonam alone
  Tigemonam MIC: 32 µg/mL
KP1009 CTX-M-15 [16]; tigemonam alone
  Tigemonam MIC: >64 µg/mL
EC1010 CMY-6 [17]; tigemonam alone
  Tigemonam MIC: 16 µg/mL
